From patent publication US6534283B1, “Method for treatment and prevention of physiological shock” (The Regents of the University of California, priority 1999, dated 2003)

Columns and labels:
[1] = tested on: Human neutrophils (PMNs); assay: Neutrophil activation (pseudopod formation) by pancreatic homogenate prepared with protease inhibitors; format: cell-based; conditions: for ability of the homogenate to stimulate neutrophil activation: pancreas homogenized in the presence of protease inhibitor
Description: The organs were immediately washed in cold 0.25 M sucrose solution, homogenized in Krebs-Henseleit solution (1:3 w/v), and the homogenate was diluted (1:2 v/v Krebs-Henseleit), following the protocol established by Glen and Lefer (Circ. Res., 1971). This homogenate served as the stock solution for all experiments. Aliquots were heated for 2.5 hours at 38° C. with mild stirring and the supernatant collected after centrifugation at 500 g for 10 min. Incubation of tissue homogenates at 38° C. promotes enzymatic activity and enhances production of the cellular activation factors.
Neutrophils were isolated from venous blood collected from healthy human volunteers in heparinized vacutainer tubes and stored at 4° C. Human neutrophils (PMNs) were used in these studies after it was shown in pilot studies that the rat organ extracts stimulated activation of both human and rat neutrophils to a similar degree.
Neutrophil isolation was carried out using gravity sedimentation to remove erythrocytes and centrifugation through a Percoll gradient. Isolated neutrophils were resuspended in PBS to achieve a count of 10^6 neutrophils/ml. 100 μl aliquots of suspended neutrophils were added to 100 μl of activating agent (e.g. tissue homogenate) or PBS as a control, and incubated for 10 minutes at 27° C. After incubation, 100 μl of 3% glutaraldehyde (Fisher Scientific, Fair Lawn, N.J.) was added to fix the cells. 100 μl of crystal violet in phosphate (pH: 7.4) buffer was added to label leukocyte nuclei for identification on wet mount preparations. Freely suspended neutrophils with pseudopodia were identified by their segmented nuclei and by the presence of cytoplasmic granules. One hundred neutrophils were counted per slide. Cells having pseudopod projections greater than about 1 μm were considered positive.
To determine if pancreatic homogenates could induce a “systemic response” in vitro, non-pancreatic tissues were incubated with substimulatory quantities of pancreatic homogenate (100 μl pancreatic homogenate/3 ml organ homogenate). […] As the pancreas produces a number of digestive enzymes, including proteases, a cocktail of trypsin and chymotrypsin was added to non-pancreatic tissue and the neutrophil activation assays were performed.

[2] = tested on: rats; assay: Shock induced by bolus injection of pancreatic homogenate, with or without ANGD infusion; format: in vivo, rat; conditions: one hour i.v. pretreatment 3.3 mg/kg body wt per hour, then pancreatic homogenate bolus
Description: Rats were cannulated via the femoral arteries and veins under general anesthesia (pentobarbital, 50 mg/kg i.m.) and saline, without or with ANGD, was infused to examine the response of the circulation after administration of pancreatic homogenate. The arterial catheter served to record mean arterial pressure (MAP) and heart rate. […] No heparin was injected other than that needed to maintain open catheters (10 U/ml Plasma-Lyte, Travenol Laboratory Inc., Deerfield, Ill.). After a one hour pretreatment, a bolus injection of filtered (0.78 μm vacuum filter, Millipore) stock pancreatic homogenate was administered (2 ml). The extent to which pancreatic homogenate induced hypotension and circulatory shock, both in the presence and absence of ANGD, was examined.

[3] = tested on: rats; assay: Splanchnic ischemia/reperfusion shock with perfusion of the lumen of the small intestine; format: in vivo, rat
Description: (§1) The small intestine of rats was perfused at a constant flow rate (4.0 ml/min) with 45 ml of rat intestinal fluid supplemented with 5 ml of 5% glucose (IF) or 50 ml of saline with 0.1% glucose (SAL) or with ANDG at a final concentration of 0.2 mg/ml. The perfusate was recirculated continuously throughout the entire procedure. After 15 min of intestinal perfusion, the animals were subjected to […]. of splanchnic ischemia, which was confirmed by cyanotic organ discoloration and loss of the pressure pulsation in the mesentery.
Arterial and portal venous blood (0.3 ml each) were sampled before ischemia, after 90 min of ischemia, and 30, 60, and 120 min postreperfusion. The samples were analyzed for leukocyte count and activation based on crystal violet staining. In the preischemic period, the leukocyte counts were the same in all three groups. In the IF And SAL groups, the leukocyte count in arterial blood started to decrease after ischemia and reached its lowest value 120 min after reperfusion. […] Similarly, ANGD was able to inhibit the activation of circulating neutrophils (15.0±1.6%) as compared to both IF (23.3±1.0%, p<0.05) and SAL (25.0±1.6%, p<0.05) at 120 minutes post-perfusion.
Myeloperoxidase activity was used as a marker for assessment of leukocyte infiltration into the small intestine, liver, and lung. Tissue myeloperoxidase levels were determined by a spectrophotometric method. At 120 minutes of reperfusion, myeloperoxidase levels were increased in intestine (36.1±3.9 U/g to 309.3±51.0 U/g), liver (0.4±0.1 U/g to 2.6±0.3 U/g), and lung (29.0±4.4 U/g to 199.2±33.9 U/g). This is an early indicator of leukocyte infiltration and organ failure in shock.
Thickness of the intestinal mucosa was used as an indicator of damage to the intestine. A sample of small intestine was longitudinally dissected, fixed in 10% buffered formalin, and embedded in paraffin. Five-micrometer sections were made and stained with hematoxylin and eosin and examined at 200× magnification. Severity of intestinal injury was estimated by the length between the tip of the villi and the musculus mucosae, a measure of mucosal layer thickness. In each specimen, the measurement was made at 10 randomly selected locations and averaged. Intestinal perfusion of protease inhibitor served to maintain mucosal thickness and to reduce intestinal injury (IF 252.0±34.0 […]).
The level of edematous lung injury was assayed by a pulmonary wet/dry ratio. Lung lobes were harvested, wet weight was determined and samples were dried at 70° C. for 72 hours. The dried tissue was weighed, and the ratio of wet to dried weight was calculated. Edema was much greater in the IF (5.65±0.33) and SAL (4.88±0.39) groups as compared to the ANGD (3.66±0.27) group which was similar to non-shock controls.

[4] = tested on: serine protease; assay: Serine protease activity of intestinal fluid during intestinal perfusion and splanchnic ischemia; format: in vivo, rat; conditions: intestinal perfusion 0.2 mg/ml
Description: as §1
The process of shock was monitored by a number of methods in various tissues throughout the body. Intestinal fluid was analyzed for serine protease activity. One milliliter of circulating fluid in the intestine was collected from the reservoir before ischemia and 90 min after ischemia. […] After 90 min of ischemia, the serine protease activity levels in the IF, SAL, and ANGD groups were 5.6±2.3×10^3 units/ml, 3.3±2.3×10^3 units/ml, and 1.2±0.2×10^3 units/ml, respectively. Intestinal perfusion with ANGD kept the serine protease activity lower than in the other two groups (p<0.05, SAL vs. ANGD; p<0.01 ANGD vs. IF and SAL groups).

Structure (SMILES) | ability of the homogenate to stimulate neutrophil activation [1] | neutrophil activation ([1]; pancreas homogenized in presence of inhibitor, untreated extract 59±10%) [%] | death within the 60 minute post-injection observation period [2] | time for MAP and heart rate to return to normal levels [2] [min] | myeloperoxidase activity in liver ([3]; 120 minutes of reperfusion, without inhibitor 2.6±0.3 U/g) [U/g] | myeloperoxidase activity in lung ([3]; 120 minutes of reperfusion, without inhibitor 199.2±33.9 U/g) [U/g] | myeloperoxidase activity in intestine ([3]; 120 minutes of reperfusion, without inhibitor 309.3±51.0 U/g) [U/g] | activation of circulating neutrophils ([3]; 120 minutes post-perfusion, IF 23.3±1.0%, SAL 25.0±1.6%) [%] | pulmonary wet/dry ratio (edematous lung injury) ([3]; IF 5.65±0.33, SAL 4.88±0.39) | leukopenia (leukocyte count in arterial blood) ([3]; intestinal perfusion 0.2 mg/ml, after ischemia up to 120 min after reperfusion) | mucosal thickness (tip of the villi to musculus mucosae) ([3]; small intestine, IF 252.0±34.0) [µm] | serine protease activity level in the intestine ([4]; after 90 min of ischemia, IF 5.6±2.3×10^3, SAL 3.3±2.3×10^3) | serine protease activity level in the intestine ([4]; before ischemia, IF=5.8±1.8×10^3, SAL=2.0±0.9×10^3)
CCOC(=O)c1ccc(OC(=O)CCCCCN=C(N)N)cc1.CS(=O)(=O)O [FOY, gabaxalate mesilate] | significantly decreased | – | – | – | – | – | – | – | – | – | – | – | –
O=S(=O)(F)Cc1ccccc1 [PMSF, phenylmethylsulfonylfluoride] | significantly decreased | – | – | – | – | – | – | – | – | – | – | – | –
N=C(N)c1ccc2cc(OC(=O)c3ccc(N=C(N)N)cc3)ccc2c1 [ANGD, 6-amidino-2napthyl p-guanidobenzoate dimethane-sulfate] | significantly decreased | 9±12 | none of these animals died | ≤ 20 | 1.0±0.1 | 87.0±13.4 | 62.5±19.8 | 15.0±1.6 | 3.66±0.27 | completely ameliorated leukopenia | 378 ± 38 | 1.2±0.2×10^3 units/ml | 1.2±0.1×10^3 units/ml
